The values that follow come from patent US20060166310A1, “Serotonin receptor” (Inpharmatica Ltd., priority 2002, published 2006).

One data set has as its target T1, INPIONCH1 (Homo sapiens, UniProt Q401N2).
T1 construct: V5 (C); His (C); expressed in transfected cells; host or cells: HEK293
T1 sequence (Q401N2 2-412): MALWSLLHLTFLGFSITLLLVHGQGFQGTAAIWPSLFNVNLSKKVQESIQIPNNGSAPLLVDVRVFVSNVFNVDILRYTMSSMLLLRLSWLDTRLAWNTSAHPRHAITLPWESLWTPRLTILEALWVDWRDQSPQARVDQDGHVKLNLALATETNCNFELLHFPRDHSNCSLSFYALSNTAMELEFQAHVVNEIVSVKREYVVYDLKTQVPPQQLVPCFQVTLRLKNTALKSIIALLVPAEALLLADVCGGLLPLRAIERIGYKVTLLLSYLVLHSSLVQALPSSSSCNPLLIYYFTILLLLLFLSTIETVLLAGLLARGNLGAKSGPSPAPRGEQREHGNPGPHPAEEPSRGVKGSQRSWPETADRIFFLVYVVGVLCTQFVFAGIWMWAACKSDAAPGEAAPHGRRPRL
Briefly: Whole cell patch-clamp of HEK293 cells transfected with INPIONCH1. The format is cell-based. The conditions noted are these: for activation of current on application: cells transfected with INPIONCH1. An excerpt:
Cells were clamped at −80 mV or −60 mV. Drugs were applied by pressure ejection from modified micropipettes.
In general terms: In patch-clamp work, channel activity is measured electrically.

The test system of the next data set is HEK293 cells. To be noted: 1 mM.

For `NCCc1c[nH]c2ccc(O)cc12` [5-HT, serotonin], on INPIONCH1 (10 μM, HEK293 cells expressing INPIONCH1), the “current on application of 5-HT” value is reported as “inward current”. The “response following a second application (desensitisation)” value at INPIONCH1 (second application of 5-HT, stated for 'the channels') is on record as “minimal or absent”. In addition, on INPIONCH1 (voltage ramps -90 to +90 mV before and after 5-HT application), the “reversal potential of 5-HT-induced current” value is “about 0 mV”. The “induction of currents before and after application of zinc sulphate” value at INPIONCH1 (zinc sulphate 1 mM) is “able to induce currents”.
`COc1cc2c3cc1Oc1cc(ccc1O)C[C@@H]1c4c(cc(OC)c(O)c4Oc4ccc(cc4)C[C@@H]3N(C)CC2)CC[N+]1(C)C` [Tubocurarine]: on INPIONCH1, the “effect on the 5-HT induced channel” value was “no effect” and the “effect on the leak channel” value is “no effect”.
Turning to `CC(=O)OCC[N+](C)(C)C` [acteylcholine], the “activation of current on application” value on INPIONCH1 is “appeared not to activate current”.
Consider `CN1CCCC1c1cccnc1` (stereo not shown) [nicotine], for which the “activation of current on application” value on INPIONCH1 is “appeared not to activate current”. In addition, the “effect on outward current recorded at positive potentials” value at INPIONCH1 (in some cells) is “appeared to block outward current”.
Take `NC[C@H](O)c1ccc(O)c(O)c1` [noradrenaline]: the “activation of current on application” value on INPIONCH1 is on record as “appeared not to activate current”.
As for `O=S(=O)([O-])[O-].[Zn+2]` [zinc sulphate], on INPIONCH1 (zinc sulphate application), the zinc activated current entry is “no consistent specific zinc activated current was observed”. Further, the “effect on amplitude of the current in response to 5-HT” value at INPIONCH1 (zinc sulphate applied to the cells) is on record as “appeared to reduce the amplitude”. Further, in the data set with HEK293 cells, the “toxicity to the cells” value is on record as “appeared to be toxic”.
